Reference: patent US5208156A, “Esterase purified from serratia marcescens SR41 (FERM BP-No. 487)” (priority 1990, dated 1993)

Biological target: T1, Serratia marcescens Sr41 (FERM BP-No. 487) esterase, purified esterase of Example 2 (Serratia marcescens, UniProt Q59932)
T1 construct: 62 kDa by SDS-PAGE; N-terminus XIFSYKDLDENA
T1 sequence (Q59932 2-613): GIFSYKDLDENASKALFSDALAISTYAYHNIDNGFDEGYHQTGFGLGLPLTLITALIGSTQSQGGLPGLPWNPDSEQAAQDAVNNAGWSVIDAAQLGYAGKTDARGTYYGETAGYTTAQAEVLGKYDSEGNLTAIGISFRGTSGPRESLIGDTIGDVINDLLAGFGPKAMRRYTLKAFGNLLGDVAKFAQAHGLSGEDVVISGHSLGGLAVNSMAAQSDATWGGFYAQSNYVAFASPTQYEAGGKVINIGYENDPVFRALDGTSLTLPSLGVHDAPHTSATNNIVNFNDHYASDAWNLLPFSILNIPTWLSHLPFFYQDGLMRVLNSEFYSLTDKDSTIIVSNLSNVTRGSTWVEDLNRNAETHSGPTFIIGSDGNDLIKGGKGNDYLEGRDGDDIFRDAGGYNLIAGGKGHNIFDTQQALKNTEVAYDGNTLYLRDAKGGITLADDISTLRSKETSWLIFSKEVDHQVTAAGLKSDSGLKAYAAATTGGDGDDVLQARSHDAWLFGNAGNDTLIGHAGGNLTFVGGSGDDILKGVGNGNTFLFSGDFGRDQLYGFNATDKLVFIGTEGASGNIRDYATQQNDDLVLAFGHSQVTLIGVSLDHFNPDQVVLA
Test: biochemical
Details: for Relative activity: 1 mM inhibitor added to enzyme solution, activity with no addition = 100, olive oil substrate, pH 8.0, 37° C.
Method: A mixture of 225 ml of 2% polyvinyl alcohol (Poval 117, manufactured by Kurare Co., Ltd.) and 75 ml of olive oil was emulsified by stirring at 14,500 rpm at 5°-10° C. for 10 minutes. 5.0 ml of the olive oil-emulsion thus-obtained and 4.0 ml of 0.25M Tris-HCl buffer (pH 8.0, containing 2.5 mM calcium chloride) were preincubated at 37° C. for 10 minutes. One ml of an enzyme solution was added thereto to initiate enzymatic reaction. After the mixture was incubated at 37° C. for 20 minutes, 20 ml of a mixture of acetone-ethanol (1:1) were added to the reaction mixture to stop the enzymatic reaction. The mixture was titrated with 0.05N sodium hydroxide solution by using phenolphthalein as the indicator. A blank solution was prepared in the same manner as above except that acetone-ethanol (1:1) is added to the substrate solution before addition of the enzyme solution. Said blank solution was titrated in the same manner as above. The amount of enzyme which liberated one μmole of fatty acid per minute was defined as one unit (U).
The effect of metal ions or known enzyme-inhibitors on the purified esterase obtained in Example 2 was investigated as follows: […]

Structure (SMILES)	Inhibition of esterase activity	activity at 1000 µM (20 min, pH 8, read-out: Relative activity) [%]	Relative activity (20 min) [%]
O=C(O)CN(CCN(CC(=O)O)CC(=O)O)CC(=O)O [Ethylenediaminetetraacetic acid]	completely inhibited	0	
O=S(=O)(F)Cc1ccccc1 [Phenylmethylsulfonyl fluoride]			100
O=C(O)c1cc[c]([Hg][Cl])cc1 [p-Chloromercury benzoate]			86
